Assay results as given in ChEMBL document CHEMBL4742387, “Condensed tricyclic compounds as protein kinase inhibitors” (2018).

Columns and labels:
[1] = system: SW-620; assay: Antiproliferative activity against human SW-620 cells assessed as reduction in cell proliferation by CellTiter-Glo luminescent cell viability assay; type: functional
[2] = system: MOLM-13; assay: Antiproliferative activity against human MOLM-13 cells assessed as reduction in cell proliferation by CellTiter-Glo luminescent cell viability assay; type: functional
[3] = system: MDA-MB-231; assay: Antiproliferative activity against human MDA-MB-231 cells assessed as reduction in cell proliferation by CellTiter-Glo luminescent cell viability assay; type: functional
[4] = biological target: T1, Serine/threonine-protein kinase haspin (Homo sapiens) (UniProt Q8TF76); assay: Inhibition of haspin in human SW620 cells assessed as reduction in IFNgamma-induced H3T3 phosphorylation pre-incubated for 1 hr before IFNgamma stimulation for 3 hrs by Western blot analysis; type: cell-based; settings: SW-620, time 4.0 hrs
T1 sequence (whole entry): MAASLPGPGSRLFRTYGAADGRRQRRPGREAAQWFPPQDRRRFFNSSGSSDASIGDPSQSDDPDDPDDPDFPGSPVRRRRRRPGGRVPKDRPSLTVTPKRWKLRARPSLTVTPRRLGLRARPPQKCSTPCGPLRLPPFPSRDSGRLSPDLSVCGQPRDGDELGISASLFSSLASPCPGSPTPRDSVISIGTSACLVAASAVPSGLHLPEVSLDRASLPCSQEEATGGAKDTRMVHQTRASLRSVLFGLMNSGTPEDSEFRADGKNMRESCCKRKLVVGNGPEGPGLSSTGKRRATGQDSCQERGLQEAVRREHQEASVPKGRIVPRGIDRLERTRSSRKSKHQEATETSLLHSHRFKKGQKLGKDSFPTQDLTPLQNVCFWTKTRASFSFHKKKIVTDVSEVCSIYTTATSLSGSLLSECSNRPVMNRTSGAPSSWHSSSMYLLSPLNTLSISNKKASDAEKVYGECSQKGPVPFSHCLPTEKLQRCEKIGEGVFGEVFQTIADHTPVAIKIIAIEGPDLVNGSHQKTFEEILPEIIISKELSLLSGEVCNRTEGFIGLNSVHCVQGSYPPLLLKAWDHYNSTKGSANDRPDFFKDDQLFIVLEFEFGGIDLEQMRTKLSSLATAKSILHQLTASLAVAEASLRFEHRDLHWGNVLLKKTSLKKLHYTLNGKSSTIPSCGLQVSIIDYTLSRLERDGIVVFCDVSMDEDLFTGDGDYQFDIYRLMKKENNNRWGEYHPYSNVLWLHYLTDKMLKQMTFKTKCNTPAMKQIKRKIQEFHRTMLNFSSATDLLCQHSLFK

[5] = biological target: T2, Cyclin-dependent kinase 8 (Homo sapiens, UniProt P49336); assay: Inhibition of CDK8 in human SW-620 cells assessed as reduction in STAT1 S727 phosphorylation pre-incubated for 1 hr before IFNgamma stimulation for 3 hrs by Western blot analysis; type: cell-based; settings: time 4.0 hrs
[6] = system: MV4-11; assay: Antiproliferative activity against human MV4-11 cells assessed as reduction in cell proliferation by CellTiter-Glo luminescent cell viability assay; type: functional
[7] = biological target: T2, Cyclin-dependent kinase 8; assay: Inhibition of CDK8 in human SW-620 cells assessed as reduction in IFNgamma-induced STAT1 S727 phosphorylation pre-incubated for 1 hr before IFNgamma stimulation for 3 hrs by Western blot analysis; type: cell-based; settings: time 4.0 hrs
[8] = biological target: T1, Serine/threonine-protein kinase haspin (Homo sapiens); assay: Inhibition of haspin in synchronized human SW620 cells assessed as reduction in IFNgamma-induced H3T3 phosphorylation pre-incubated for 1 hr before IFNgamma stimulation for 3 hrs by Western blot analysis; type: cell-based; settings: SW-620, time 4.0 hrs
[9] = biological target: Cyclin-C/Cyclin-dependent kinase 19 (Homo sapiens, UniProt Q9BWU1); assay: Inhibition of kinase tracer 236 binding to full-length His-tagged recombinant human CDK19/cyclin C incubated for 60 mins by FRET based LanthaScreen Eu-Kinase binding assay; type: protein-complex assay
[10] = biological target: CDK8/Cyclin C (Homo sapiens, UniProt P49336); assay: Inhibition of kinase tracer 236 binding to full-length His-tagged recombinant human CDK8/cyclin C incubated for 60 mins by FRET based LanthaScreen Eu-Kinase binding assay; type: protein-complex assay
[11] = system: DU-145; assay: Antiproliferative activity against human DU-145 cells assessed as reduction in cell proliferation by CellTiter-Glo luminescent cell viability assay; type: functional
[12] = system: HCT-116; assay: Antiproliferative activity against human HCT-116 cells assessed as reduction in cell proliferation by CellTiter-Glo luminescent cell viability assay; type: functional
[13] = system: SK-MEL19; assay: Antiproliferative activity against human SK-MEL19 cells assessed as reduction in cell proliferation by CellTiter-Glo luminescent cell viability assay; type: functional
[14] = system: BXPC-3; assay: Antiproliferative activity against human BXPC-3 cells assessed as reduction in cell proliferation by CellTiter-Glo luminescent cell viability assay; type: functional
[15] = biological target: T3, Serine/threonine-protein kinase haspin (Homo sapiens, UniProt Q8TF76); assay: Inhibition of GST-tagged recombinant human haspin kinase domain incubated for 60 mins by ADP-Glo luminescent kinase assay
T3 sequence (Q8TF76 whole entry): T1 sequence (whole entry)

[16] = system: SW-620; assay: Inhibition of colony formation of human SW-620 cells incubated for 11 days (Every 3 days medium is changed by fresh medium and compounds were added freshly) by crystal violet staining based assay; type: functional, cell-based
[17] = system: A549; assay: Antiproliferative activity against human A549 cells assessed as reduction in cell proliferation by CellTiter-Glo luminescent cell viability assay; type: functional

T2 sequence (P49336 whole entry): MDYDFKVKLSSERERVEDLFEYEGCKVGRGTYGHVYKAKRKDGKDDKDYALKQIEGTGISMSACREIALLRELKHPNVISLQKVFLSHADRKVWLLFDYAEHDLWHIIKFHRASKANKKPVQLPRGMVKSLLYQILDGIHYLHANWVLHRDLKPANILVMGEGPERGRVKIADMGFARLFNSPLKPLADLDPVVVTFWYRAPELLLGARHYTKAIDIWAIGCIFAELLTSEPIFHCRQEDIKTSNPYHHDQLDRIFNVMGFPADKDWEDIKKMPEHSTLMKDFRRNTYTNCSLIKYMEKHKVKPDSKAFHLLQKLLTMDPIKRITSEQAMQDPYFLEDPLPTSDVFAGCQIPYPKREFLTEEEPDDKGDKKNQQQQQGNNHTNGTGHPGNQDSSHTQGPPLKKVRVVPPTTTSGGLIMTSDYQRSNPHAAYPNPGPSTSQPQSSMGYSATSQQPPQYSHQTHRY
Sequence of CDK8/Cyclin C (P49336 whole entry): as above
Sequence of CDK8/Cyclin C (P24863 whole entry, further chain): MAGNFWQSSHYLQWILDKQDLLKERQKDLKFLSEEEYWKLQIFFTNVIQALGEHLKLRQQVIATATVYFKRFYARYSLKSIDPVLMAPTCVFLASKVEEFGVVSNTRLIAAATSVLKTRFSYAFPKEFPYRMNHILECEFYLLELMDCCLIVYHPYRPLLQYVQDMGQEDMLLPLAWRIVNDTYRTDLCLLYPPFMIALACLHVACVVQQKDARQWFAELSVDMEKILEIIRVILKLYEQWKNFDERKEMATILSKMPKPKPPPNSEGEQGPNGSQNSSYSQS
Sequence of Cyclin-C/Cyclin-dependent kinase 19 (Q9BWU1 whole entry): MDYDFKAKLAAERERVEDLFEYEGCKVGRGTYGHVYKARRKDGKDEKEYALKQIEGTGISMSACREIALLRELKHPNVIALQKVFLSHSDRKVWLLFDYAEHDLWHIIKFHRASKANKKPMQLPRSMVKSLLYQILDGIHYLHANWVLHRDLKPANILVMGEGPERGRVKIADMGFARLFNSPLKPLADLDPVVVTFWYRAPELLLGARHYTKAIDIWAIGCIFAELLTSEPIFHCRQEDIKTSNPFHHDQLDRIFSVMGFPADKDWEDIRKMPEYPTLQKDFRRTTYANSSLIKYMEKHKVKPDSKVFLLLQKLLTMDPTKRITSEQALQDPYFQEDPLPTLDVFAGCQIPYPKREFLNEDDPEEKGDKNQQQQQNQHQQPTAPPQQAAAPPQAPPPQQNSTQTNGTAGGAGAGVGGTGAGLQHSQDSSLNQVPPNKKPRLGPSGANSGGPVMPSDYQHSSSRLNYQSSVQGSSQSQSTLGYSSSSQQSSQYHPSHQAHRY
Sequence of Cyclin-C/Cyclin-dependent kinase 19 (P24863 whole entry, further chain): as the sequence (P24863 whole entry, further chain) above

SMILES | GI50 ([1]; Homo sapiens, SW-620) [nM] | GI50 ([2]; Homo sapiens, MOLM-13) [nM] | GI50 ([3]; Homo sapiens, MDA-MB-231) [nM] | INH [4] [nM] | INH [5] [nM] | GI50 ([6]; Homo sapiens, MV4-11) [nM] | INH [7] [nM] | INH [8] [nM] | IC50 [10] [nM] | other results
CCn1c(C(N)=O)cc2c1-c1ccncc1OC21CCN(CC(F)(F)F)CC1 | 1000 | < 1000 | 1000 | < 500 | < 500 | < 1000 |  |  |  | 
CC1(C)Oc2cnccc2-c2c1cc(C(N)=O)n2CCF | 1000 | < 1000 | 1000 | < 500 | < 500 | < 1000 | < 500 | < 500 |  | 
CCn1c(C(N)=O)c(-c2ccccc2OC)c2c1-c1ccncc1OC2(C)C | 10000 | < 1000 | 10000 | < 500 | < 500 | < 1000 | < 500 | < 500 |  | 
NC(=O)c1cc2c([nH]1)-c1ccncc1OC2C1CCCCC1 (centres undefined) | < 1000 | < 1000 | 1000 |  |  | < 1000 | < 500 | 500 | 19.3 | IC50 [9]: 87.3 nM
COc1cc(Nc2ncc3c(n2)-c2ccc(Cl)cc2C(c2c(F)cccc2OC)=NC3)ccc1C(=O)O [ALISERTIB] | 500 |  |  |  |  |  |  |  |  | GI50 [11]: 12500 nM; GI50 [12]: 12500 nM
NC(=O)c1cc2c([nH]1)-c1ccncc1OC2C1CCOCC1 (stereo in doubt; form 2) [listing 1 of 2 here] |  |  |  |  |  |  | < 500 | 500 |  | 
CCn1c(C(N)=O)cc2c1-c1ccncc1OC21CCOCC1 | 1000 | < 1000 | 1000 | < 500 | < 500 | < 1000 |  |  |  | 
C[C@@H](Oc1cc(-c2cnn(C3CCNCC3)c2)cnc1N)c1c(Cl)ccc(F)c1Cl [CRIZOTINIB] | 1000 |  |  |  |  |  |  |  |  | GI50 [11]: 20000 nM; GI50 [13]: 5000 nM; GI50 [14]: 5000 nM; GI50 [12]: 5000 nM
NC(=O)c1cc2c([nH]1)-c1ccncc1OC2C1CCOCC1 (stereo in doubt; form 1) [listing 1 of 2 here] |  | 1000 |  |  |  | < 1000 |  |  | 281 | GI50 [1]: 1000 nM; GI50 [3]: 1000 nM; IC50 [15]: 5760 nM
NC(=O)c1cc2c([nH]1)-c1ccncc1OC2C1CCOCC1 (stereo in doubt; form 2) [listing 2 of 2 here] |  |  |  |  |  |  |  |  | 4.46 | GI50 [1]: 10000 nM; IC50 [9]: 14.2 nM; GI50 [3]: 10000 nM; IC50 [15]: 406 nM; GI50 [6]: 1000 nM
NC(=O)c1cc2c([nH]1)-c1ccncc1OC2C1CCOCC1 (stereo in doubt; form 1) [listing 2 of 2 here] |  |  |  |  |  |  | 500 | 500 |  | 
CCn1c(C(N)=O)cc2c1-c1ccncc1OC2C1CCCCC1 (stereo in doubt; form 2) [listing 1 of 2 here] |  |  |  |  |  |  |  |  | 1.36 | GI50 [2]: 1000 nM; IC50 [15]: 522 nM
CCn1c(C(N)=O)cc2c1-c1ccncc1OC21CCCCC1 |  |  |  | < 500 | < 500 |  |  |  |  | 
COCCn1c(C(N)=O)cc2c1-c1ccncc1OC2(C)C |  |  |  |  |  |  | < 500 | < 500 |  | 
NC(=O)c1cc2c([nH]1)-c1ccncc1O[C@H]2C1CCCCC1 | 1000 | 1000 | 10000 | < 500 | < 500 | < 1000 | < 500 | < 500 | 8.5 | IC50 [9]: 7.14 nM
CCn1c(C(N)=O)cc2c1-c1ccncc1OC2C1CCCCC1 (stereo in doubt; form 2) [listing 2 of 2 here] |  |  |  | < 500 | < 500 |  |  |  |  | 
CCn1c(C(N)=O)cc2c1-c1ccncc1OC2C1CCCCC1 (stereo in doubt; form 1) | 10000 | < 1000 | 10000 |  |  | < 1000 |  |  | 0.407 | IC50 [9]: 1.41 nM; IC50 [15]: 95.2 nM
COc1ccccc1-c1c2c(n(CCF)c1C(N)=O)-c1ccncc1OC2(C)C |  |  |  |  |  |  | < 500 | 500 |  | EC50 [16]: 5430 nM
CC(=O)O[C@H]1C(=O)[C@@]2(C)[C@H]([C@H](OC(=O)c3ccccc3)[C@]3(O)C[C@H](OC(=O)[C@H](O)[C@@H](NC(=O)c4ccccc4)c4ccccc4)C(C)=C1C3(C)C)[C@]1(OC(C)=O)CO[C@@H]1C[C@@H]2O [PACLITAXEL] | 5 |  |  |  |  |  |  |  |  | GI50 [12]: 5 nM
CN(NC(=O)CC(=O)NN(C)C(=S)c1ccccc1)C(=S)c1ccccc1 [ELESCLOMOL] | 250 |  | 250 |  |  |  |  |  |  | GI50 [17]: 250 nM; GI50 [13]: 250 nM; GI50 [14]: 62 nM
CCn1c(C(N)=O)cc2c1-c1ccncc1OC2C1CCOCC1 (centres undefined) |  |  |  |  |  |  |  |  | < 1.41 | IC50 [15]: 355 nM
NC(=O)c1cc2c(n1CCF)-c1ccncc1OC21CCCCC1 | 1000 | < 1000 | 1000 | < 500 | < 500 | < 1000 |  |  |  | 
